{"source": "patent US20100203110A1", "about": "“Therapeutics for Cancer Using 3-Bromopyruvate and Other Selective Inhibitors of ATP Production” (The Johns Hopkins University, priority 2006, published 2010)", "key": {"[1]": {"tested_on": "mitochondrial respiration of VX2 tumor mitochondria", "assay": "Mitochondrial respiration (oxygen consumption, Clark electrode)", "format": "biochemical, rabbit", "conditions": "1.2 mM; basal (succinate) and ADP stimulated rate", "experimental": "The freshly isolated liver or VX2 tumor tissues (15-20 g wet weight) was rinsed in 3 volumes of H-medium (210 mM D-mannitol, 70 mM sucrose, 2 mM Hepes, and 0.05% bovine albumin, pH 7.4) at 4° C. and minced with a razor blade as finely as possible. A 30% (V/V) suspension was made using ice-cold H-medium in a Potter-Elvehjem glass homogenizer (55 ml capacity), and homogenization was achieved by applying 4 complete up and down strokes through the suspension with a rotating (˜400 rpm), serrated, teflon pestle attached to a motor. To remove cell debris and nuclei, the resultant homogenate was diluted to twice the initial volume and centrifuged at 630×g for 8 minutes at 4° C. in a Sorvall RC-2B centrifuge using a GSA rotor. The supernatant was removed and then centrifuged at 6,800 g for 15 min under the same conditions. The resultant supernatant was saved and referred to here as the cytosolic faction. […]\nOxygen consumption rates were measured polarographically using a Clark oxygen electrode inserted into a 2.5 ml chamber equipped with a magnetic stirrer. […] The loss of oxygen was monitored in a 2.1 ml system at 25° C. containing 1 mg mitochondria, 0.5 mM EDTA, 2.0 mM Hepes, 220 mM D-mannitol, 70 mM sucrose, 2.5 mM KPi, 2.6 mM MgCl2, and 0.5 mg/ml bovine albumin, and, where indicated, 7.8 mM succinate (respiratory substrate), and 0.24 mM ADP (ATP synthesis substrate). […]"}, "[2]": {"assay": "Biodistribution of 14C radiolabeled 3-bromopyruvate in rabbit Vx-2 model", "format": "in vivo", "experimental": "In order to properly design a treatment protocol that would ensure survival of the animal with the least amount of toxicity, the biodistribution of 3-bromopyruvate given either IV or intraarterially over a period of 24 hours was investigated. For this series of experiments, radioactive 3-bromopyruvate using ^14C was synthesized. The use of ^14C labeled 3-bromopyruvate would allow monitoring in each tissue.\n36 rabbits were divided into two groups of 18 animals each. Group 1 was treated intraarterially and group 2 received intravenous injection of 3-bromopyruvate. Each group was further subdivided into six groups of three rabbits each, corresponding to various time points of sacrifice (0, 30, 60, 120 and 240 minutes and 24 hours). All rabbits were fasted for 24 hours prior to treatment. The rabbits treated intraarterially received a one-hour infusion of 25 cc of 1.75 mM 3-bromopyruvate in PBS and those treated intravenously received a one-hour infusion of 25 cc of 20 mM 3-bromopyruvate in PBS. The difference in doses of 3-bromopyruvate between intraarterial and intravenous administration is based on the optimal dose for each method of administration. Radiolabeled 3-bromopyruvate (200 μCi, 100 μL) was added to each 25 ml treatment solution. One hour before sacrifice, 1 ml of 18FDG (1 mCi) was injected via an ear vein to monitor glucose uptake.\nThe purpose of the injection of FDG was to correlate the effects of 3-bromopyruvate with glucose uptake. […] This finding, also present when the drug was given intraarterially, was more pronounced and the accumulation of 3-bromopyruvate is prolonged compared to IV administration."}, "[3]": {"tested_on": "mitochondrial hexokinase of the VX2 tumor", "assay": "Hexokinase activity assay coupled to glucose-6-phosphate dehydrogenase", "format": "biochemical, rabbit", "conditions": "VX2 tumor mitochondria, cell free", "experimental": "The freshly isolated liver or VX2 tumor tissues (15-20 g wet weight) was rinsed in 3 volumes of H-medium (210 mM D-mannitol, 70 mM sucrose, 2 mM Hepes, and 0.05% bovine albumin, pH 7.4) at 4° C. and minced with a razor blade as finely as possible. A 30% (V/V) suspension was made using ice-cold H-medium in a Potter-Elvehjem glass homogenizer (55 ml capacity), and homogenization was achieved by applying 4 complete up and down strokes through the suspension with a rotating (˜400 rpm), serrated, teflon pestle attached to a motor. To remove cell debris and nuclei, the resultant homogenate was diluted to twice the initial volume and centrifuged at 630×g for 8 minutes at 4° C. in a Sorvall RC-2B centrifuge using a GSA rotor. The supernatant was removed and then centrifuged at 6,800 g for 15 min under the same conditions. The resultant supernatant was saved and referred to here as the cytosolic faction. The pellet was resuspended in the initial volume of H-medium and centrifuged twice at 9,800×g for 15 min at 4° C. The washed pellet represents the mitochondrial fraction.\nThe assay coupled the glucose-6-phosphate formed in the hexokinase reaction to the glucose-6-phosphate dehydrogenase reaction. Here, NADP+, oxidizes glucose-6-phosphate to a g-lactone while becoming reduced to NADPH, thus allowing the formation of the latter to be monitored spectrophotometrically at 340 nm. […]"}, "[4]": {"tested_on": "liver implanted VX2 tumors", "assay": "Systemic delivery via marginal ear vein, animals with liver implanted VX2 tumors", "format": "in vivo, rabbit", "conditions": "25 ml, 0.5 mM via marginal ear vein", "excerpt": "Finally, it was important to examine the effect of 3-BrPA when delivered systemically (i.e., via the general circulation) on both animal toxicity and its capacity to damage liver implanted tumors."}, "[5]": {"tested_on": "VX2", "assay": "Caspase-3 activity, VX2", "format": "cell-based, rabbit", "conditions": "1 mM for 3 hour", "experimental": "(§1) Caspase-3 activity and reduced cell viability was also measured in cell lines (HepG2, THLE-2, and VX2 cell lines) following 3-bromopyruvate treatment (1 mM for 3 hour) (FIG. 6A). Caspase-3 activity increased in each cell line following treatment and cell viability decreased following treatment. An increase in caspase-3 activity indicated the mechanism of cell death is apoptotic. FIGS. 6 B and C show cell viability is reduced in each cell line with increasing 3-bromopyruvate concentration after 1 and 3 hours of treatment."}, "[6]": {"tested_on": "AS-30D hepatoma cells", "assay": "Killing of AS-30D hepatoma cells (trypan blue)", "format": "cell-based, rat", "conditions": "5 mM, 12 h", "experimental": "AS-30D hepatoma cells grown in the peritoneal cavity of Sprague Dawley female rats (see Materials) were adapted to grow in tissue culture in Dulbecco's modified Eagle's medium containing 10% fetal bovine serum. Cells were maintained at 37° C. in a humidified atmosphere containing 5% CO2, and counted in a Neubauer chamber after trypan blue dye addition (cell/dye volume=1/1) by visualization under a Nikon inverted microscope.\nThe studies described above using the VX2 tumor model for liver cancer predict that 2DOG and 3BrPA may have the capacity to kill hepatoma cells expressing the high glycolytic/high hexokinase phenotype. […] Cell killing was assessed in these experiments by counting those cells in which trypan blue had entered."}, "[7]": {"tested_on": "HepG2", "assay": "Caspase-3 activity, HepG2", "format": "cell-based, human", "conditions": "1 mM for 3 hour", "experimental": "as §1"}, "[8]": {"conditions": "IA one-hour infusion 25 cc 1.75 mM"}}}
{"compound": "O=C(O)C(=O)CBr", "note": "[3-bromopyruvate]", "values": [{"measurement": "inhibition of mitochondrial respiration", "setting": "[1]", "result": "completely inhibits"}, {"measurement": "levels in the brain", "setting": "[2]; 14C label", "result": "virtually undetectable"}, {"measurement": "accumulation in other organs including brain, lungs and heart", "setting": "[2]; [8]", "result": "no accumulation"}, {"measurement": "retention in the tumor", "setting": "[2]; [8]", "result": "stayed within the tumor up to 24 hours"}, {"measurement": "clearance route", "setting": "[2]; IA, lesser extent through the kidneys", "result": "mostly through the liver"}, {"measurement": "uptake by organs (heart, lung and brain)", "setting": "[2]; IV one-hour infusion 25 cc 20 mM", "result": "no significant uptake"}, {"measurement": "time of maximal tumor uptake", "setting": "[2]; after IV injection", "result": 4, "unit": "h"}, {"measurement": "blood brain barrier penetration", "setting": "[2]; rabbit, in vivo", "result": "does not cross the blood brain barrier"}, {"measurement": "inhibition of FDG (glucose) uptake in organs", "setting": "[2]; rabbit, in vivo", "result": "no inhibition"}, {"measurement": "tissue damage at histopathologic analysis", "setting": "[2]; rabbit, in vivo", "result": "none of the organs showed any associated tissue damage"}, {"measurement": "concentration for complete inhibition of hexokinase activity", "setting": "[3]", "result": 5, "unit": "mM"}, {"measurement": "animal behavior", "setting": "[4]", "result": "normal behavior"}, {"measurement": "effect on liver implanted VX2 tumors", "setting": "[4]", "result": "no killing effect"}, {"measurement": "histological examination of 9 major tissues", "setting": "[4]; 4 days", "result": "no obvious damage"}, {"measurement": "Caspase-3 activity", "setting": "[5]", "result": "increased"}, {"measurement": "cell killing", "setting": "[6]", "result": "all cells"}, {"measurement": "Caspase-3 activity", "setting": "[7]", "result": "increased"}]}
